Results as given in patent US20220280581A1, “BENEFICIAL BACTERIA AND SECRETORY IMMUNOGLOBULIN A” (priority 2019, published 2022).

How the values were obtained:
pooled human milk SIgA [1] = assay: Binding of SIgA to bacteria by flow cytometry
Procedure: Binding of sIgA to bacteria. Bacteria from Table 1 were resuspended in 0.8% saline at a concentration of 1×10^7 CFU/mL. SIgA was then added at 0, 10, 100, 500 and 1000 μg per 1×10^7 colony forming units (CFU) of bacteria and incubated at 24° C. for 30 min. Following incubation, bacteria were pelleted at 14000×g for 4 min and washed with saline twice to remove non-adherent SIgA.
Flow cytometry and immunofluorescence: To measure binding cells were fixed using 4% w/v paraformaldehyde for 30 min, washed with PBS, then incubated with 1% bovine serum albumin (BSA) blocking buffer for 1 h. Cells were stained with 1/100 dilution SYTOT™ 9 (S34854, ThermoFisher) for live cells and goat anti-human IgA conjugated to Alexa 647 fluorophore using 1/50 dilution in 1% BSA (ab96998, Abcam). For flow cytometry, all samples were acquired and analyzed on a FACScan flow cytometer (BD Biosciences, Mountain View, Calif.) using the CellQuest software program. For live/dead analyses following in vitro digestion, cells were stained with SYTOT™ 9 (1/100 dilution) for live cells and propidium iodine (1/1000 dilution) for dead cells or cells with compromised membranes.

[2] = tested on: Caco-2 colonic cells co-cultured with HT29-MTX E12 cells; assay: Bacterial adherence to colonocyte co-cultures; type: cell-based, human
Procedure: Mammalian cell culture binding assays: Caco-2 colonic cells were co-cultured with HT29-MTX E12 cells at a ratio of 3:1 and seeded at a density of 5×10^4 cells/well in 24-well plates, maintained as described above. On day 1 post-confluence, medium was removed, the cells washed once with PBS, and DMEM without FBS or antibiotics was added prior to binding assay. Bacteria were prepared as described above, with or without SIgA and resuspended in PBS at 1×10^7 CFU/mL. 4×10^5 CFU were added to the colonocytes and the plate was centrifuged at 600×g for 5 min to ensure bacteria association with the cells. After 2 h of incubation at 37° C. in 5% CO2, medium was removed and saved for cytokine analysis. Cells were washed once with PBS, and to one set of replicates, cells were lysed with 0.5% Triton X-100 and serial dilutions of the cell suspensions were plated on MRS and incubated anaerobically at 37° C. overnight to test viability. To a second set of replicates, TRIzol (15596018; Life Technologies) was added directly to washed cells for RNA extraction.

Sal4 = assay: BLI-Sal4 association: concentration dependence and stability; type: binding; details: FIG. 6, BLI-Sal4
pooled human milk SIgA [3] = assay: Binding of SIgA to bacteria by flow cytometry; details: 100 μg SIgA to 1e6 cfu bacteria

Bifidobacterium longum ssp. infantis ATCC 15697
binding of a heterogeneous pool of SIgA (pooled human milk SIgA [1]; 0-1000 μg SIgA per 1e7 CFU): concentration dependent | association to SIgA when first grown on 2′FL (pooled human milk SIgA [1]; 1% 2′FL in the final media): increased association to SIgA | increased adherence to the co-culture with the addition of SIgA ([2]; first grown on LNnT): 7.5e5 CFU | increased adherence to the co-culture with the addition of SIgA ([2]; first grown on glucose): 3.5e6 CFU | slope of regression plot of adherent bacteria with SIgA association ([2]; lactose-grown): 4.6e3 adherent CFU per % population associated with SIgA | Slope (adherent CFU/% SIgA association) ([2]; substrate 2'FL): 1552.0 adherent CFU/% SIgA associatio | Slope (adherent CFU/% SIgA association) ([2]; substrate LNnT): 3606.0 adherent CFU/% SIgA associatio | Slope (adherent CFU/% SIgA association) ([2]; substrate all (no lac)): 4887.0 adherent CFU/% SIgA associatio | Slope (adherent CFU/% SIgA association) ([2]; substrate glucose): 6882.0 adherent CFU/% SIgA associatio | Slope (adherent CFU/% SIgA association) ([2]; substrate lactose): −2230.0 adherent CFU/% SIgA associatio | SIgA association with BLI: concentration dependence (Sal4): concentration dependent | SIgA association with BLI: stability over time (Sal4; 6 hour): stable over a 6 hour time interval | ability to bind to pooled human milk SIgA (pooled human milk SIgA [3]): 92.4% | increase in SIgA binding when first grown on an HMO substrate (pooled human milk SIgA [3]; HMO-grown): 4.8%
